In patent US10806726B2, “Methods of using indazole-3-carb oxamides and their use as Wnt/B-catenin signaling pathway inhibitors” (Samumed, LLC, priority 2016, dated 2020):
Like-named read-outs stand apart in the source and are kept apart here.

Assays:
[1] = tested on: TNFα production in THP-1 cells; assay: Cytokine Production Assay, LPS-induced TNFα in THP-1 cells; type: cell-based; conditions: Homo sapiens; THP-1, LPS 50 ng/mL 5 hours, 2 independent assays; read-out: average EC50, inhibition of TNFα production
Procedure: THP-1 cells were cultured in basal media with 1% FBS for 24 hours before the start of the assay. THP-1 cells were plated at 6×10e^4 cells/well and treated with DMSO (vehicle control) or compound 175 at 10 μM highest test concentration and 2 to 3.5-fold serial dilutions up to 8 concentrations (10, 3.5, 1, 0.5, 0.1, 0.035, 0.01, 0.005 μM). For the TNFα assay, 50 ng/mL of LPS was added to the wells after 2 hours to induce cytokine production, and cells were incubated for 5 hours at 37° C. For the IL6 assay, 500 ng/ml of LPS was added after 2 hours and cells were incubated for 22 hours at 37° C. Plates were spun in a centrifuge for 1 minute at 10,000 rpm and supernatants were collected for ELISA. Supernatants were diluted 1:1 for the TNFα assay and 1:4 for the IL6 assay using the assay medium. ELISA was performed using Human TNF-α ELISA MAX™ Deluxe (Catalog #430204, Biolegend, San Diego, Calif.) and Human IL-6 ELISA MAX™ Deluxe (Catalog #430504, Biolegend, San Diego, Calif.) kits. […] Following several washes to remove unbound avidin-HRP, the TMB substrate was added and the plates were read on the Cytation 3 plate reader (Biotek Inc., Winooski, Vt.) at an absorbance of 450 nm with correction at 570 nm. […] Inhibition profile and EC50 was calculated using Prism 5 (GraphPad Software Inc, La Jolla, Calif., USA). […]

[2] = Pharmacokinetics after single topical application in rats (plasma, tendon, skin); type: in vivo, rat; conditions: for AUC(0-t) / Cmax / Tmax: topical or ocular; for Kp: tendon and plasma
Procedure: The compound 175 formulation was applied once topically to each ankle of the hind leg of each animal at 60 μL volume (30 μL/cm^2×2 cm^2) over the area of the Achilles tendon.
Blood samples (˜0.5 mL) were collected via cardiac puncture, into tubes containing K2EDTA as anticoagulant, at 1, 2, 4, 7 and 24 hours post-dose from 2 animals per timepoint (n=2). Plasma was harvested and frozen at −80° C. for bioanalysis.
The Achilles tendons from both ankles were collected following euthanasia at 1, 2, 4, 7 and 24 hours post-dose from 2 animals per timepoint (n=4) from all groups. Skin tissue samples were collected from the dose-site at 7 and 24 hours post-dose from 2 animals per timepoint (n=4) in Group 2. Tissues were frozen at −80° C. for bioanalysis. Blood and tissue collection schedule is outlined in Table 8 below.
Skin tissue samples were processed using the following procedures: 1) Weigh tissue and homogenize using cryoPrep (Covaris); 2) Add 9× volume of Acetonitrile:Methanol (70:30) and vortex for one hour; 3) Aliquot 100 μL of tissue homogenate into 96 microtube polypropylene plate; 4) Add 10 μL of working standard to each standard; 5) Add 10 μL of methanol in all samples and blanks; 6) Add 10 μL of internal standard (IS) to all tubes except blanks; 7) Spin in centrifuge at 3000 rpm for 10 minutes; and 8) Transfer 100 μL of supernatant into 96-well plate containing 150 μL of water. Cap and vortex for LC/MS/MS analysis.
The chromatograms of the samples were integrated and calibrated using Analyst 1.6.2 (AB Sciex, Redwood City, Calif.). Linear regression with 1/x^2 weighting and internal standardization was used for standard calibration, with an acceptance criterion of ±30% of nominal standard concentration. The lower limit of quantitation (LLOQ) was 2.00 ng/mL (plasma), 6.00 ng/g (tendon) and 25.0 ng/g (skin). Pharmacokinetic parameters were estimated by noncompartmental analysis from individual concentration versus time profiles using Pheonix WinNonlin version 6.3 (Certara, Inc., Princeton, N.J.). The time to maximum concentration (tmax) and the maximum concentration (Cmax) were determined based on measured plasma and tissue concentrations. The area under the curve (AUC0-last) was calculated using the linear trapezoidal rule.

[3] = Tendon, Group 1, 1 mg/mL, 1% BA, single topical
[4] = Tendon, Group 2, 10 mg/mL, 1% BA, single topical
[5] = Tendon, Group 3, 10 mg/mL, no preservative (0.5% Tween 80), single topical
[6] = male, Sprague Dawley, rat, plasma, 1 mg/mL, Plasma, Group 1, 1 mg/mL, 1% BA, single topical
[7] = male, Sprague Dawley, rat, plasma, 10 mg/mL, Plasma, Group 2, 10 mg/mL, 1% BA, single topical
[8] = male, Sprague Dawley, rat, plasma, 10 mg/mL, Plasma, Group 3, 10 mg/mL, no preservative (0.5% Tween 80), single topical
[9] = male, Sprague Dawley, rat, tendon, 1 mg/mL, Tendon, Group 1, 1 mg/mL, 1% BA, single topical
[10] = male, Sprague Dawley, rat, tendon, 10 mg/mL, Tendon, Group 2, 10 mg/mL, 1% BA, single topical
[11] = male, Sprague Dawley, rat, tendon, 10 mg/mL, Tendon, Group 3, 10 mg/mL, no preservative (0.5% Tween 80), single topical

EC50 [1]: 342 to 547 nM
plasma exposure of Group 3 relative to Group 2 ([2]; 10 mg/mL without BA (Tween 80) vs 10 mg/mL with BA): ~0.2 ×
tendon exposure of Group 3 relative to Group 2 ([2]; 10 mg/mL without BA vs 10 mg/mL with BA): ~4 ×
skin concentration relative to tendon concentrations ([2]; 7 and 24 hours post-dose, Group 2): roughly 1000 ×
increase in tendon AUC(0-last) for a 10× dose-increment ([2]; Group 2 vs Group 1, formulations containing BA): 3.4 ×
last ([2]; Plasma, Group 1, 1 mg/mL, 1% BA, single topical): 1.00 h
last ([2]; Plasma, Group 2, 10 mg/mL, 1% BA, single topical): 7.00 h
last ([2]; Plasma, Group 3, 10 mg/mL, no preservative (0.5% Tween 80), single topical): 7.00 h
last ([2]; Skin, Group 2, 10 mg/mL, 1% BA, single topical): 24.0 h
AUC(0-last) [2, 3]: 2164 ng·h/g
last [2, 3]: 24.0 h
AUC(0-last) [2, 4]: 7270 ng·h/g
last [2, 4]: 24.0 h
AUC(0-last) [2, 5]: 28077 ng·h/g
last [2, 5]: 24.0 h
AUC(0-t) [2, 6]: 0.65 ng·h/mL
Cmax [2, 6]: 1.3 ng/mL
Tmax [2, 6]: 1 h
AUC(0-t) [2, 7]: 36.1 ng·h/mL
Cmax [2, 7]: 10.6 ng/mL
Tmax [2, 7]: 4 h
AUC(0-t) [2, 8]: 6.79 ng·h/mL
Cmax [2, 8]: 1.94 ng/mL
Tmax [2, 8]: 7 h
Tmax ([2]; male, Sprague Dawley, rat, skin, 10 mg/mL, Skin, Group 2, 10 mg/mL, 1% BA, single topical): 7 h
Cmax ([2]; male, Sprague Dawley, rat, skin, 10 mg/mL, Skin, Group 2, 10 mg/mL, 1% BA, above quantitation limit (AQL > 25000 ng/g), reported as estimated): 209000 ng/g
concentration at 7 h ([2]; male, Sprague Dawley, rat, skin, topical, 7 hours post-dose, Group 2, 10 mg/mL containing BA, above quantitation limit, estimated): 209000 ng/g
concentration at 24 h ([2]; male, Sprague Dawley, rat, skin, topical, 24 hours post-dose, Group 2, 10 mg/mL containing BA, above quantitation limit, estimated): 113000 ng/g
Kp ([2]; male, Sprague Dawley, rat, topical, 1 mg/mL, Tendon to plasma, Group 1, 1 mg/mL, 1% BA, read-out: Tissue/Plasma AUC Ratio): 3330
Kp ([2]; male, Sprague Dawley, rat, topical, 10 mg/mL, Tendon to plasma, Group 2, 10 mg/mL, 1% BA, read-out: Tissue/Plasma AUC Ratio): 202
Kp ([2]; male, Sprague Dawley, rat, topical, 10 mg/mL, Tendon to plasma, Group 3, 10 mg/mL without BA, read-out: Tissue/Plasma AUC Ratio): 4140
Kp ([2]; male, Sprague Dawley, rat, topical, all dose groups, single topical administration, read-out: tendon to plasma ratios, range across groups): 202 to 4140
Cmax [2, 9]: 519 ng/g
Tmax [2, 9]: 1 h
Cmax [2, 10]: 1930 ng/g
Tmax [2, 10]: 1 h
Cmax [2, 11]: 7050 ng/g
Tmax [2, 11]: 1 h
Compound: COc1ccc(NC(=O)c2n[nH]c3ccc(-c4cncc(CN5CCCCC5)c4)cc23)cn1 [compound 175, N-(6-Methoxypyridin-3-yl)-5-(5-(piperidin-1-ylmethyl)pyridin-3-yl)-1H-indazole-3-carboxamide]
